2 compounds from paper PMC10141604, “Small-Molecule Inhibition of Androgen Receptor Dimerization as a Strategy against Prostate Cancer” (ACS Central Science, 2023) can be followed below.

Data set [1] deals with secreted PSA from LNCaP cells. Briefly: Secreted prostate-specific antigen (PSA) assay. In kind it is cell-based. Conditions: for IC50: Homo sapiens, read-out: IC50, PSA levels secreted in the cellular media. Here is the method: Secreted Prostate-Specific Antigen (PSA) Assay
After the AR transcriptional activity assay was completed, 300 μl of the media
supernatant including the secreted PSA was measured using […]® 2000 XPi
Immunoassay System (Siemens Ltd., Erlangen, Germany). […]

A further data set relates to NIH-3T3. Briefly: MTT cell viability assay, NIH-3T3. Type of data set: cell-based, murine. To be noted: 72 h. Here is the method:
3-(4,5-dimethythiazol-2-yl)-2,5-diphenyl-2-H-tetrazolium bromide (MTT) colorimetric assay was employed to investigate cell viability. Cells were seeded into 96-well plates with 2-5× 10^3 cells per well (5× 10^3 cells/well for LNCaP, 22RV1, NIH-3T3, GES-1, Chang, […]
NCI-H1299, U2OS, U87) for 1 day incubation at 37 °C. Then, the cells were treated with various concentrations of compounds (22.86 nM - 50 μM) and incubated for 72 h. Then, 10 μl MTT (5 mg/ml) was added into each well and incubated for 4 h. Afterwards, 100 μl of triplex 10% SDS-0.1% HCl-phosophate-buffered saline (PBS) solutions was added into each well and incubated for overnight. The absorbance at 570 nm was measured (Eon, Bioteck, Winooski, VT). […]

For the next data set, the system named is LNCaP cells. Kind of data set: Clonogenic (colony forming) assay, LNCaP. Type of data set: cell-based. To be noted: 2 and 20 μM, 16-18 days. How it is done: (§1) 1.5× 10^3 cells/well of LNCaP or 22RV1 were seeded into a 6-well plate. After 1 day
(§2) incubation, the medium of each well was removed and washed thrice using PBS. […]

Another data set has as its system 22RV1. Kind of data set: Clonogenic (colony forming) assay, 22RV1. In kind it is cell-based. Conditions: 2 and 20 μM, 16-18 days. How it is done: as §1, §2
For another data set, the target named is T1, MR (Homo sapiens, UniProt P08235).
T1 construct: host or cells: HEK293T
T1 sequence (P08235 1-984): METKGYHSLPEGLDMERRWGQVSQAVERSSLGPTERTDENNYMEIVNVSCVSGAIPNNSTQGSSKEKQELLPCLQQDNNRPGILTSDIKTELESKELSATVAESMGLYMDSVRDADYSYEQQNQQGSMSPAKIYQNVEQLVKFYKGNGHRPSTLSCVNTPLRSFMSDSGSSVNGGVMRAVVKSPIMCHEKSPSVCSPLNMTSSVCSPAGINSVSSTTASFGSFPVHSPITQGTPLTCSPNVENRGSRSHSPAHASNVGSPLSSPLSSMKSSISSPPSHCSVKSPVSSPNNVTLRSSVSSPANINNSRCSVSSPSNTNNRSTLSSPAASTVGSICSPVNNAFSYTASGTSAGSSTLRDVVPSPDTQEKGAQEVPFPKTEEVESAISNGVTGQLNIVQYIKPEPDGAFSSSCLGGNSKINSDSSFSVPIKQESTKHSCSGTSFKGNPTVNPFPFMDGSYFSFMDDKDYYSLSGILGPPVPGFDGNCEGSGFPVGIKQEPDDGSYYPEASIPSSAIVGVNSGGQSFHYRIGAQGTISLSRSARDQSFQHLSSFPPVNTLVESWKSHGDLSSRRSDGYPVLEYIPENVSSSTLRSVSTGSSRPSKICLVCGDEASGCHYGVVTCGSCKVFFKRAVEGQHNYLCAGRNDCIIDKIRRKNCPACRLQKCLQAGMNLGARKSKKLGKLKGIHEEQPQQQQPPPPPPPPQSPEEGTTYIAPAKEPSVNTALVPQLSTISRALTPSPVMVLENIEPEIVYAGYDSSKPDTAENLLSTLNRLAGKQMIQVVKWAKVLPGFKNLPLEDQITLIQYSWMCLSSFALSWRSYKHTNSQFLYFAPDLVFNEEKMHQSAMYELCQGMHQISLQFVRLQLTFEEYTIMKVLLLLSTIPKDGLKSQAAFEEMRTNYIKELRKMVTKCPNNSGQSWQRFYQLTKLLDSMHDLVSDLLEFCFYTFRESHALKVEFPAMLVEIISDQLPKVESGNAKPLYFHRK
Briefly: Luciferase reporter assay for MR (HEK293T cells). In kind it is cell-based. Conditions: 10 μM, 5 nM aldosterone. How it is done: Luciferase Reporter Assays for PR, GR, and MR
PC3, HeLa, and HEK293T cells were cultured using 5% CSS RPMI-1640, 5% CSS RPMI-1640 and 10% FBS DMEM media in 96-well plates for 24 h, respectively. For PR induction, PC3 (1 × 10^4 cells/well) were transfected with 50 ng pcDNA3-PRB (#89130, Addgene), 24 ng pGL4.36[luc2P MMTV Hygro] (Promega) and 5 ng Renilla using HG-TransGeneTM transfection reagent (#TG-10012, Genomeditech) for 4 h. For GR induction, Hela (1 × 10^4 cells/well) were transfected with 71 ng pCMV -GR11 (#89105, Addgene), 24 ng pGL4.36[luc2P MMTV Hygro] (Promega) and 5 ng Renilla using lip3000 transfection reagent (#L3000075, Thermofisher) for 24 h. For MR induction, HEK293T (1 × 10^4 cells/well) were transfected with 71 ng pCMV-MR gifted by Liu et al. 28, 24 ng of pGL4.36[luc2P MMTV Hygro] (Promega) and 5 ng Renilla using lip3000 transfec tion reagent for 24 h. For the antagonistic models, 10 nM /well progesterone for PC3 cells , 1 nM/well dexamethasone for HeLa, and 5 nM/well aldosterone for HEK293T cells were added to stimulate the cells. Meanwhile, each cell line was treated with a series concentration of compounds (0.4, 2, and 10 μM). For the agonistic models, the cells were directly treated with the compounds without any hormones. Endogenous hormones progesterone, dexamethasone, and aldosterone were considered as agonists for PR, GR, and MR, respectively. The luciferase activities were assessed using the Dual-Glo Luciferase system (#E1910, Promega). […]
(Reporter assays use an easily measured gene product as a stand-in for the process of interest.)

With `CC(=O)Cc1nsc(NC(=O)c2cc(-c3cccc(C(F)(F)F)c3)oc2C)n1` [Compound M17-B15], in data set [1], the “inhibition of the secretion of PSA” value is reported as “dose-dependent” and the IC50 (in general, the concentration that inhibits the measured activity by half) amounted to 350 nM. Besides, in the data set with NIH-3T3, the “cytotoxicity against NIH-3T3” value is “negligible cytotoxicity”. In addition, the “colony formation of LNCaP cells” value with LNCaP cells was “significant inhibitory activities”. Further, in the data set with 22RV1, the “colony formation of 22RV1” value is “not”. Moreover, the “MR antagonistic activity” value at MR is “not observed”.
With `CNC(=O)c1ccc(N2C(=S)N(c3ccc(C#N)c(C(F)(F)F)c3)C(=O)C2(C)C)cc1F` [Enz, enzalutamide, reference compound], the IC50 in data set [1] was 180 nM. Besides, the “cytotoxicity against NIH-3T3” value with NIH-3T3 is recorded as “negligible cytotoxicity”. Further, the “colony formation of LNCaP cells” value with LNCaP cells is “significant inhibitory activities”. For the same compound, the “colony formation of 22RV1” value with 22RV1 is on record as “not”. Also, the “MR antagonistic activity” value at MR was “not observed”.
